In patent publication US9346761B2, “Arginine methyltransferase inhibitors and uses thereof” (Epizyme, Inc., priority 2013, dated 2016):

How the values were obtained:
[1] = biological target: T1, Full-length human PRMT1 isoform 1 (Homo sapiens, UniProt Q99873); experiment: PRMT1 biochemical assay (3H-SAM Flashplate, peptide substrate)
T1 construct: GST-tagged PRMT1; made in house; host or cells: High Five insect cells (baculovirus, pFastBacI)
Method in brief: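 Tritiated methyl transfer from 3H-SAM onto biotinylated peptide, captured on streptavidin Flashplates and counted. Baculovirus-expressed GST-PRMT1 and compound were preincubated 30 min at room temperature in Bicine buffer pH 7.6. Cold SAM at 300 uM final ended the reaction.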

[2] = biological target: T2, Full-length human PRMT8 (Homo sapiens, UniProt Q9NR22); experiment: PRMT8 biochemical assay (3H-SAM Flashplate, peptide substrate)
T2 construct: Full-length human PRMT8 (NM_019854.4) isoform 1 transcript clone; made in house
Description: General Materials. S-adenosylmethionine (SAM), S-adenosylhomocysteine (SAH), bicine, Tween20, dimethylsulfoxide (DMSO), bovine skin gelatin (BSG), isopropyl-β-D-thiogalactopyranoside (IPTG), and Tris(2-carboxyethyl)phosphine hydrochloride solution (TCEP) were purchased from Sigma-Aldrich at the highest level of purity possible. ^3H-SAM was purchase from American Radiolabeled Chemicals with a specific activity of 80 Ci/mmol. 384-well streptavidin Flashplates were purchased from PerkinElmer.
Substrates. Peptide representative of human histone H4 residues 31-45 was synthesized with an N-terminal linker-affinity tag motif and a C-terminal amide cap by 21st Century Biochemicals.
Protein Expression. E. coli (BL21(DE3) Gold, Stratagene) made competent by the CaCl2 method were transformed with the PRMT8 construct and ampicillin selection. Protein over-expression was accomplished by growing the PRMT8 expressing E. coli clone and inducing expression with 0.3 mM IPTG at 16° C. The culture was grown for 12 hours, harvested by centrifugation, and stored at −80° C. for purification.
Protein Purification. […] GST-tagged PRMT8 was eluted with 50 mM Tris, 2 mM glutathione, pH 7.8. Pooled fractions were cleaved by thrombin (10 U) and dialysed in buffer A. GST was removed by reloading the cleaved protein sample onto glutathione sepharose column and PRMT8 was collected in the flow-through fractions. PRMT8 was purified further by ceramic hydroxyapatite chromatography. The column was washed with 50 mM phosphate buffer, 100 mM NaCl, 5% glycerol, 5 mM β-mercaptoethanol, pH 7.8 and PRMT8 was eluted by 100 mM phosphate in the same buffer. Protein was concentrated and buffer was exchanged to 50 mM Tris, 300 mM NaCl, 10% glycerol, 5 mM β-mercaptoethanol, pH 7.8 by ultrafiltration.
General Procedure for PRMT8 Enzyme Assays on Peptide Substrates. The assays were all performed in a buffer consisting of 20 mM Bicine (pH=7.6), 1 mM TCEP, 0.005% BSG, and 0.002% Tween 20, prepared on the day of use. […] DMSO (1 ul) was added to Columns 11, 12, 23, 24, rows A-H for the maximum signal control and 1 ul of SAH, a known product and inhibitor of PRMT8, was added to columns 11, 12, 23, 24, rows I-P for the minimum signal control. A cocktail (40 ul) containing the PRMT8 enzyme was added by Multidrop Combi (Thermo-Fisher). The compounds were allowed to incubate with PRMT8 for 30 min at room temperature, then a cocktail (10 ul) containing ^3H-SAM and peptide was added to initiate the reaction (final volume=51 ul). […] The assays were stopped by the addition of non-radiolabeled SAM (10 ul) to a final concentration of 400 uM, which dilutes the ^3H-SAM to a level where its incorporation into the peptide substrate is no longer detectable. 50 ul of the reaction in the 384-well polypropylene plate was then transferred to a 384-well Flashplate and the biotinylated peptides were allowed to bind to the streptavidin surface for at least 1 hour before being washed once with 0.1% Tween20 in a Biotek ELx405 plate washer. The plates were then read in a PerkinElmer TopCount plate reader to measure the quantity of ^3H-labeled peptide bound to the Flashplate surface, measured as disintegrations per minute (dpm) or alternatively, referred to as counts per minute (cpm).
Where dpm=disintegrations per minute, cmpd=signal in assay well, and min and max are the respective minimum and maximum signal controls.
Where top and bottom are the normally allowed to float, but may be fixed at 100 or 0 respectively in a 3-parameter fit. The Hill Coefficient normally allowed to float but may also be fixed at 1 in a 3-parameter fit. Y is the % inhibition and X is the compound concentration.

T1 sequence (Q99873 with tags, fused parts or gaps): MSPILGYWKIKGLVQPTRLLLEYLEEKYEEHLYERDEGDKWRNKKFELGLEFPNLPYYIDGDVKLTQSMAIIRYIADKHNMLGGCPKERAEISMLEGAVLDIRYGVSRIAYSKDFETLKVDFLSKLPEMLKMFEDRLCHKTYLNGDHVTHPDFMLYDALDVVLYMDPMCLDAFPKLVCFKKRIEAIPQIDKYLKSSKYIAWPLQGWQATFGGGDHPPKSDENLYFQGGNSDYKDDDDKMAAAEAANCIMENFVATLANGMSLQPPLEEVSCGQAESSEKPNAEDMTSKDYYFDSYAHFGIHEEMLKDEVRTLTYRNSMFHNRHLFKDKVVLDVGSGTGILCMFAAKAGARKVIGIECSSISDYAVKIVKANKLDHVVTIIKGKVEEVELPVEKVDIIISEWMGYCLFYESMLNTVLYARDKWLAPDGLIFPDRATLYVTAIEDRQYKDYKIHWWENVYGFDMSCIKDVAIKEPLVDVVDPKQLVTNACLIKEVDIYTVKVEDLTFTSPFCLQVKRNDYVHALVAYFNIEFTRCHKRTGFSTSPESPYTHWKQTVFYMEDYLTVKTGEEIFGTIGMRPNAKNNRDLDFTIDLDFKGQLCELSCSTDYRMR
T2 sequence (Q9NR22 whole entry, canonical isoform): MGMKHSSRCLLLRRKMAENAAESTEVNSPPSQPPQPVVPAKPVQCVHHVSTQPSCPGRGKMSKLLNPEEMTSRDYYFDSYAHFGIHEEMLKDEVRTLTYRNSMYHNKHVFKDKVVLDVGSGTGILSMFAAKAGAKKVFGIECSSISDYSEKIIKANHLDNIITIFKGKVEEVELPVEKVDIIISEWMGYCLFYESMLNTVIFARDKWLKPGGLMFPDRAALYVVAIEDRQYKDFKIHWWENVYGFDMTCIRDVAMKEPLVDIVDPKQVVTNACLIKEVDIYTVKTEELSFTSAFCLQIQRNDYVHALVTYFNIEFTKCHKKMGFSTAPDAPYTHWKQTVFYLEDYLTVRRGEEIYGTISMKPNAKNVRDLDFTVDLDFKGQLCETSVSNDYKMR

Row | SMILES | IC50 [1] [nM] | IC50 [2] [nM]
1 | COCCn1cc(CN(C)CCN)c(-c2ccc(F)cc2)n1 [Compound 5] | 1010 to 3000 | 3010 to 10000
2 | COCCn1ncc(CN(C)CCN)c1-c1ccc(F)cc1 [Compound 6] | 3010 to 10000 | 
3 | CCn1ncc(CN(C)CCNC)c1-c1ccc(F)cc1 [Compound 7] | 101 to 1000 | 3010 to 10000
4 | CCn1cc(CN(C)CCNC)c(-c2ccc(F)cc2)n1 [Compound 8] | 1010 to 3000 | 3010 to 10000
5 | CN(CCN)Cc1c[nH]nc1-c1ccc(Cl)cc1 [Compound 95] | < 100 | 101 to 1000
6 | CN(CCN)Cc1c[nH]nc1-c1ccc(OCC(F)(F)F)cc1 [Compound 96] | < 100 | 101 to 1000
7 | CC(C)Oc1ccc(-c2n[nH]cc2CN(C)CCN)cc1F [Compound 97] | < 100 | < 100
8 | CN(CCN)Cc1c[nH]nc1-c1ccc(C2CCOCC2)cc1 [Compound 98] | < 100 | 101 to 1000
9 | CN(CCN)Cc1c[nH]nc1-c1ccc(F)cc1F [Compound 99] | < 100 | 1010 to 3000
10 | CN(CCN)Cc1n[nH]cc1-c1ccc(C#N)cc1 [Compound 100] | < 100 | 101 to 1000
11 | CC(C)c1ccc(-c2c[nH]nc2CN(C)CCN)cc1 [Compound 101] | < 100 | 101 to 1000
12 | CN(CCN)Cc1n[nH]cc1-c1ccc(Cl)cc1 [Compound 102] | < 100 | 101 to 1000
13 | CN(CCN)Cc1n[nH]cc1-c1ccc(C(F)(F)F)cc1 [Compound 103] | < 100 | 101 to 1000
14 | CN(CCN)Cc1n[nH]cc1-c1ccc(C2CC2)cc1 [Compound 104] | < 100 | 101 to 1000
15 | CN(CCN)Cc1n[nH]cc1-c1ccc(OC(F)(F)F)cc1 [Compound 105] | < 100 | 101 to 1000
16 | CN(CCN)Cc1c[nH]nc1-c1cc(F)ccc1Cl [Compound 106] | 101 to 1000 | 3010 to 10000
17 | COc1ccc(-c2n[nH]cc2CN(C)CCN)c(F)c1 [Compound 107] | < 100 | 101 to 1000
18 | Cc1ccc(-c2n[nH]cc2CN(C)CCN)c(F)c1 [Compound 108] | < 100 | 1010 to 3000
19 | COc1ccccc1-c1n[nH]cc1CN(C)CCN [Compound 109] | 101 to 1000 | 1010 to 3000
20 | Cc1cc(C#N)ccc1-c1n[nH]cc1CN(C)CCN [Compound 110] | < 100 | 101 to 1000

Row | SMILES | IC50 [1] [nM] | IC50 [2] [nM]
21 | CN(CCN)Cc1c[nH]nc1-c1cc(F)cc(F)c1 [Compound 111] | < 100 | 101 to 1000
22 | CC(=O)c1cccc(-c2n[nH]cc2CN(C)CCN)c1 [Compound 112] | < 100 | 101 to 1000
23 | CN(CCN)Cc1cnn(CC(O)CO)c1-c1ccc(F)cc1 (centres unmarked) [Compound 113] | 1010 to 3000 | 3010 to 10000
24 | CN(CCN)Cc1c[nH]nc1-c1ccc(OC2CC2)cc1 [Compound 114] | < 100 | < 100
25 | CC(O)c1ccc(-c2n[nH]cc2CN(C)CCN)cc1 (centres unmarked) [Compound 115] | < 100 | 1010 to 3000
26 | CN(CCN)Cc1c[nH]nc1-c1ccc(C2CC2)cc1 [Compound 116] | < 100 | 101 to 1000
27 | CN(CCN)Cc1c[nH]nc1-c1ccc(C(F)(F)F)c(Cl)c1 [Compound 117] | < 100 | < 100
28 | CN(CCN)Cc1c[nH]nc1-c1ccc(Cl)c(F)c1 [Compound 118] | < 100 | 101 to 1000
29 | CN(CCN)Cc1n[nH]cc1-c1ccc(OC2CC2)cc1 [Compound 119] | < 100 | 101 to 1000
30 | CN(CCN)Cc1c[nH]nc1-c1cc(F)cc(Cl)c1 [Compound 121] | < 100 | 101 to 1000
31 | CN(CCN)Cc1c[nH]nc1-c1cccc(Cl)c1 [Compound 122] | < 100 | 101 to 1000
32 | CN(CCN)Cc1c[nH]nc1-c1cccc(Cl)c1F [Compound 123] | < 100 | 101 to 1000
33 | CN(CCN)Cc1c[nH]nc1-c1ccc(F)c(Cl)c1 [Compound 124] | < 100 | 101 to 1000
34 | COc1ccc(-c2n[nH]cc2CN(C)CCN)cc1Cl [Compound 125] | < 100 | 101 to 1000
35 | Cc1ccc(-c2n[nH]cc2CN(C)CCN)cc1Cl [Compound 126] | < 100 | 101 to 1000
36 | COc1cc(Cl)cc(-c2n[nH]cc2CN(C)CCN)c1 [Compound 127] | < 100 | 101 to 1000
37 | CN(CCN)Cc1cn(CC2CCOCC2)nc1-c1ccc(F)cc1 [Compound 128] | 3010 to 10000 | > 10000
38 | Cc1c(F)cccc1-c1n[nH]cc1CN(C)CCN [Compound 129] | 101 to 1000 | 101 to 1000
39 | COc1cccc(-c2n[nH]cc2CN(C)CCN)c1 [Compound 130] | 101 to 1000 | 101 to 1000
40 | Cc1cccc(-c2n[nH]cc2CN(C)CCN)c1 [Compound 131] | < 100 | 101 to 1000

Row | SMILES | IC50 [1] [nM] | IC50 [2] [nM]
41 | CN(CCN)Cc1c[nH]nc1-c1ccc(Cl)cc1F [Compound 132] | < 100 | 101 to 1000
42 | Cc1cc(Cl)ccc1-c1n[nH]cc1CN(C)CCN [Compound 133] | < 100 | 101 to 1000
43 | COc1ccc(-c2n[nH]cc2CN(C)CCN)cc1F [Compound 134] | < 100 | 101 to 1000
44 | CN(CCN)Cc1c[nH]nc1-c1ccc(C(F)(F)F)cc1Cl [Compound 135] | < 100 | 1010 to 3000
45 | CCNC(=O)c1ccc(-c2n[nH]cc2CN(C)CCN)cc1 [Compound 136] | < 100 | 101 to 1000
46 | CN(CCN)Cc1c[nH]nc1-c1cc(Cl)cc(Cl)c1 [Compound 137] | < 100 | 101 to 1000
47 | CN(CCN)Cc1n[nH]cc1-c1ccc(OC(F)F)cc1 [Compound 138] | < 100 | 101 to 1000
48 | CN(CCN1CCCC1)Cc1c[nH]nc1-c1ccc(C#N)cc1 [Compound 139] | > 10000 | > 10000
49 | CN(CCN)Cc1c[nH]nc1-c1ccccc1C#N [Compound 140] | 101 to 1000 | 3010 to 10000
50 | CN(CCN)Cc1c[nH]nc1-c1ccc(C(F)(F)F)c(F)c1 [Compound 141] | < 100 | 101 to 1000
51 | COc1cc(-c2n[nH]cc2CN(C)CCN)ccc1F [Compound 142] | < 100 | 101 to 1000
52 | CCN(CC)C(=O)c1ccc(-c2n[nH]cc2CN(C)CCN)cc1 [Compound 143] | 101 to 1000 | 1010 to 3000
53 | CC(C)Oc1ccc(-c2c[nH]nc2CN(C)CCN)cc1F [Compound 144] | < 100 | 101 to 1000
54 | CN(CCN)Cc1n[nH]cc1-c1ccc(C2CCOCC2)cc1 [Compound 145] | < 100 | 101 to 1000
55 | COc1ccc(-c2n[nH]cc2CN(C)CCN)c(Cl)c1 [Compound 146] | < 100 | 1010 to 3000
56 | CN(CCN)Cc1c[nH]nc1-c1cc(C#N)ccc1Cl [Compound 147] | 1010 to 3000 | > 10000
57 | CN(CCN)Cc1c[nH]nc1-c1ccc(C(F)(F)F)cc1F [Compound 148] | 101 to 1000 | 101 to 1000
58 | CN(CCN)Cc1c[nH]nc1-c1cccc(N(C)C)c1 [Compound 149] | < 100 | 101 to 1000
59 | CCOC(=O)c1cccc(-c2n[nH]cc2CN(C)CCN)c1 [Compound 150] | < 100 | 101 to 1000
60 | COc1cc(F)ccc1-c1n[nH]cc1CN(C)CCN [Compound 151] | 101 to 1000 | 1010 to 3000
